Reference: patent US11879021B2, “Cyclic peptides and uses thereof” (UNIVERSITÉ DE MONTRÉAL, priority 2016, dated 2024)

Legend:
[1] = test system: R-FSL-1 (TLR2 agonist)-induced NO production in RAW macrophage cell line; test: Nitric oxide (NO) production induced by TLR2 agonist R-FSL-1 in RAW macrophage cell line; format: cell-based, murine; settings: RAW macrophages
Protocol: The murine RAW1 macrophage cell line was obtained from American Type Cell Collection (ATCC #TIB-71), seeded at 1.5×10^5 cells/well in Dulbecco's Modified Eagle's medium (DMEM) containing 100 U/mL of penicillin (Pen) and 100 μg/mL of streptomycin (Strep) on a 48-well plate (Costar® #3548), and incubated at 37° C. with 5% CO2. After 2 h, the cell culture medium of adhered cells was removed and replaced by DMEM-Pen/Strep medium containing 0.2% of bovine serum albumin (BSA), and supplemented with the cyclic peptides at a concentration of 10^−6 or 10^−7 M. MPE-001 (DBG178, His-D-Trp-Ala-AzaTyr-D-Phe-Lys-NH2) and [azaLys^6]-GHRP-6 (His-D-Trp-Ala-Trp-D-Phe-azaLys-NH2, negative control) at 10^−6 M were used as positive and negative controls, respectively. After 1 h pre-incubation, the cells were stimulated overnight using the TLR2 ligand fibroblast-stimulating lipopeptide (R-FSL-1) (Invivogen® #L7022) at a concentration of 300 ng/mL. Supernatants were then collected for nitrite production analysis by fluorescence using 2,3-diaminonaphthalene (DAN). Briefly, 25 μL of sample was incubated with 0.5 μg of DAN in a 100 μL final volume of phosphate buffer (50 mM, pH 7.5) at room temperature in the dark. After 15 min, the reaction was stopped with 20 μL of NaOH (2.8N) and the plate was read using a fluorescence plate reader (TECAN® Safire, λexc 365 nm and λem 430 nm).

CD36 = target: T1, CD36 (Rattus norvegicus, UniProt Q07969); test: Competition binding of photoactivatable [125I]-Tyr-Bpa-Ala-Hexarelin to CD36 in rat cardiac membranes; settings: competition with [125I]-Tyr-Bpa-Ala-Hexarelin, rat heart membranes; read-out: IC50 (μM), binding affinity for CD36
T1 construct: from tissue; host or cells: Heart (cardiac membranes) of Sprague Dawley rats from Charles River
T1 sequence (Q07969 whole entry): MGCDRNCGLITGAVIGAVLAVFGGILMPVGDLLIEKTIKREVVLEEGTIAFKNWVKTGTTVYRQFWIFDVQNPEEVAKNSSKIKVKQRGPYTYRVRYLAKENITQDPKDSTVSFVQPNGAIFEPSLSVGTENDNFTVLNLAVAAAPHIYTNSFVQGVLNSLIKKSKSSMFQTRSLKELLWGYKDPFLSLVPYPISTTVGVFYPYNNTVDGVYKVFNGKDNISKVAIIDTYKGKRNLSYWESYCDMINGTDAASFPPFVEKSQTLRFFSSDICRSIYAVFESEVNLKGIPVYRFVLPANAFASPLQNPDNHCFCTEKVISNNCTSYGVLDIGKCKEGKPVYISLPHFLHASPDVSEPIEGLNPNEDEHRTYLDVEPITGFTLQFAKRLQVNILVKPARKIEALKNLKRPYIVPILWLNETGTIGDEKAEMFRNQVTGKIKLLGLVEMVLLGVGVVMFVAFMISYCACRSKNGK
Protocol: Hearts from Sprague Dawley rats (300-325 g) from Charles River were cut into small pieces and homogenized with a Polytron® at low speed, 3×15 sec in buffer A (10 mM NaHCO3, 5 mM NaN3, 10 μM Pefabloc®, 0.1 μM Aprotinin, 1 μM Pepstatin A, 1 μM Leupeptin, pH 7.0) at a concentration of […] of tissue. The homogenate was first centrifuged at 8,700×g for 20 min in a Sorvall® centrifuge and the supernatant was collected on ice. The pellet was resuspended and re-homogenized with a Glass-Teflon® Potter by 5 strokes. This homogenate was recentrifuged at 8,700×g for 10 min and the resulting supernatant was combined with the first collected supernatant. The combined supernatant was centrifuged at 35,000×g for 20 min. The pellet fraction obtained was resuspended in Buffer B (20 mM Tris-maleate, 0.6M KCl, pH 6.8) in a volume corresponding to 20 mL/g of fresh tissue using a glass homogenizer with a Teflon pestle. The resulting suspension was centrifuged again at 35,000×g for 60 min. and the pellet fraction obtained was resuspended in Buffer C (10 mM Tris/HCl buffer pH 7.4) and thoroughly homogenized in a glass with a Teflon® pestle (20 ml/g of fresh tissue). This suspension was submitted to another centrifugation at 35,000×g for 60 min. The collected pellet was resuspended in 50 mM Tris/HCl buffer pH 7.4) containing 2 mM EGTA in a final volume corresponding to 1-2 mL/g of fresh tissue. The membrane preparation obtained was frozen at −80° C. Protein concentration was determined using the bicinchoninic acid (BCA) method, employing BSA as standard.
The reaction was started by adding 3 nmol of H2O2 for 5 min at room temperature. This step was repeated twice with a period of 5 min of incubation for each addition. The reaction was stopped by diluting the mixture with 1 mL of 0.1% TFA. The radioiodinated peptide was purified by HPLC on a reverse-phase Vydac® C18 column with a 60-min linear gradient from 20% to 50% of acetonitrile in 0.1% TFA. The eluted radiolabelled tracer was collected, aliquoted (50×10^6 cpm/fraction) and stored at −80° C.
Binding studies with MPE-298 were done with increasing concentrations from 0.01 to 5 μM of competition ligands. Nonspecific binding was defined as binding not displaced by 50 μM corresponding peptide. All peptide containing solutions were diluted in Buffer B. Buffer A and B were degassed under vacuum, and used in capped tubes in order to minimize lipid peroxidation. Before the incubation period, all tubes were put under a low flow of nitrogen. All material was kept on ice and the binding assay was performed in darkness. After an incubation period of 60 min at 22° C. (vortexing every 15 min), membranes were submitted to irradiation with UV lamps (365 nm) for 15 min at 4° C. After centrifugation at 12,000×g for 15 minutes, the pellets were resuspended in 40 μl of sample buffer (62 mM Tris-HCl, pH 6.8, 2% SDS, 10% glycerol, 15% 2-mercaptoethanol, and 0.05% bromophenol blue), and boiled for 5 min prior to being subjected to electrophoresis. Proteins (50 μg/40 μl) were separated on a 7.5% SDS-PAGE Bio-Rad® Mini-Protean electrophoresis system (150 V for 1 h). The gels resulting from SDS/PAGE were fixed, colored in Coomassie Brilliant Blue R-250, dried, exposed to a storage phosphor intensifying screen (Amersham Biosciences), and analysed using a Typhoon® PhosphorImager (GE Healthcare Life Sciences®). […] The curves were analysed by using software package (Graphpad® prism version 7.0).

apoE−/− mice = test: Murine atherosclerosis model (apoE−/− mice on atherogenic diet), aortic lesions; format: in vivo; settings: 300 nmol/kg daily s.c. for 8 weeks
Protocol: Experiments were performed in male apoE−/− mice fed an atherogenic diet (D12108, cholate-free AIN-76A semi-purified diet, Research Diets Inc., New Brunswick, NJ) from 4 weeks of age. MPE-298 (300 nmol/kg), MPE-267 (300 nmol/kg) or vehicle (0.9% NaCl), were administered by daily by subcutaneous (s.c.) injections for 8 weeks, from 12 weeks of age, as shown schematically in FIG. 8A.

[2] = test system: R-FSL-1 (TLR2 agonist)-induced TNF-α and CCL-2 release in RAW macrophages; test: R-FSL-1-induced TNF-α and CCL-2 release in RAW macrophages; format: cell-based, murine; settings: 10^−7 M

## C=CCN1CC#CCN(NC(=O)[C@H](C)N)C(=O)N[C@H](Cc2c[nH]c3ccccc23)C(=O)N[C@@H](C)C(=O)N[C@@H](Cc2c[nH]c3ccccc23)C(=O)N[C@H](Cc2ccccc2)C(=O)N[C@H](C(N)=O)CCCC1 [MPE-298]
[1]; 10^−7 M, FIG. 4F
  suppression of NO production compared with positive control MPE-001 at the same concentration: more important
[1]; 10^−7 M, further analyses, FIG. 4F
  suppression of R-FSL-1-mediated NO production at 10^−7 M: significant suppression
[1]; at the concentration tested (10^−6 or 10^−7 M), FIGS. 4A to 4F
  suppression of R-FSL-1-mediated NO production: significant suppression
CD36
  IC50: 0.07 µM
apoE−/− mice
  reduction of aortic lesions relative to 0.9% NaCl (vehicle): 42%
[2]
  inhibitory effect on R-FSL-1-induced CCL-2 release compared with reference standard DBG178 (MPE-001): significantly higher
